In the supplement of paper PMC10307832:

How the values were obtained:
Test in all cases: relative viability (nuclei count vs DMSO), 5 days (fraction); higher = more cells survive
[1] = compound: COc1cc2ncn(-c3cc(OCc4ccccc4C(F)(F)F)c(C(N)=O)s3)c2cc1OC + CC(=O)c1c(C)c2cnc(Nc3ccc(N4CCNCC4)cn3)nc2n(C2CCCC2)c1=O [Palbociclib] (partner 0.5 µM)
How it was run: (§1)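 Five library-drug doses in √10 steps were combined with a fixed anchor-drug dose, or a single drug was given alone, by pin tool to lung cancer cell lines in 1536-well plates the day after seeding. Nuclei were stained and counted after 5 days. Relative viability is the nuclei count in treated wells over that in vehicle wells, taken as the median of duplicate plates.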

[2] = compound: COc1cc2ncn(-c3cc(OCc4ccccc4C(F)(F)F)c(C(N)=O)s3)c2cc1OC + Cc1nc(NC(=O)N2CCC[C@H]2C(N)=O)sc1-c1ccnc(C(C)(C)C(F)(F)F)c1 [Alpelisib] (partner 2 µM)
How it was run: as §1

[3] = compound: COc1cc2ncn(-c3cc(OCc4ccccc4C(F)(F)F)c(C(N)=O)s3)c2cc1OC + Nc1nc2[nH]cc(CCc3ccc(C(=O)N[C@@H](CCC(=O)O)C(=O)O)cc3)c2c(=O)[nH]1 [Pemetrexed] (partner 0.2 µM)
How it was run: as §1

[4] = compound: COc1cc2ncn(-c3cc(OCc4ccccc4C(F)(F)F)c(C(N)=O)s3)c2cc1OC + O=C(c1cc(Cc2n[nH]c(=O)c3ccccc23)ccc1F)N1CCN(C(=O)C2CC2)CC1 [Olaparib] (partner 8 µM)
How it was run: as §1

Row | Cell Line | relative viability ([1]; first compound 0.05 µM) | relative viability ([1]; first compound 0.1581 µM) | relative viability ([1]; first compound 0.5 µM) | relative viability ([1]; first compound 1.581 µM) | relative viability ([1]; first compound 5 µM) | relative viability ([2]; first compound 0.05 µM) | relative viability ([2]; first compound 0.1581 µM) | relative viability ([2]; first compound 0.5 µM) | relative viability ([2]; first compound 1.581 µM) | relative viability ([2]; first compound 5 µM) | relative viability ([3]; first compound 0.05 µM) | relative viability ([3]; first compound 0.1581 µM) | relative viability ([3]; first compound 0.5 µM) | relative viability ([3]; first compound 1.581 µM) | relative viability ([3]; first compound 5 µM) | relative viability ([4]; first compound 0.05 µM) | relative viability ([4]; first compound 0.1581 µM) | relative viability ([4]; first compound 0.5 µM) | relative viability ([4]; first compound 1.581 µM) | relative viability ([4]; first compound 5 µM)
1 | NCI-H1734 | 0.315 | 0.334 | 0.325 | 0.203 | 0.171 | 0.784 | 0.721 | 0.571 | 0.334 | 0.224 | 0.401 | 0.386 | 0.41 | 0.25 | 0.164 | 0.235 | 0.646 | 0.247 | 0.212 | 0.144
2 | NCI-H1755 | 0.452 | 0.442 | 0.429 | 0.316 | 0.328 | 0.945 | 0.953 | 0.716 | 0.352 | 0.262 | 0.43 | 0.434 | 0.426 | 0.299 | 0.286 | 0.816 | 0.827 | 0.714 | 0.447 | 0.319
3 | NCI-H1792 | 0.728 | 0.631 | 0.568 | 0.377 | 0.332 | 0.732 | 0.659 | 0.501 | 0.31 | 0.364 | 0.683 | 0.688 | 0.0781 | 0.0502 | 0.0387 | 0.152 | 0.273 | 0.457 | 0.0375 | 0.0338
4 | NCI-H1793 | 0.229 | 0.357 | 0.233 | 0.247 | 0.177 | 0.611 | 0.745 | 0.394 | 0.22 | 0.191 | 0.788 | 1.01 | 0.276 | 0.164 | 0.107 | 0.216 | 0.837 | 0.436 | 0.177 | 0.117
5 | NCI-H1915 | 0.456 | 0.493 | 0.347 | 0.114 | 0.0905 | 1.05 | 0.987 | 0.775 | 0.161 | 0.104 | 0.478 | 0.489 | 0.37 | 0.137 | 0.0826 | 0.232 | 0.211 | 0.176 | 0.108 | 0.0766
6 | NCI-H1944 | 0.412 | 0.373 | 0.308 | 0.205 | 0.119 | 0.871 | 0.901 | 0.619 | 0.173 | 0.118 | 0.666 | 0.635 | 0.536 | 0.178 | 0.0832 | 0.415 | 0.445 | 0.304 | 0.152 | 0.122
7 | NCI-H1975 | 0.613 | 0.33 | 0.193 | 0.198 | 0.148 | 0.645 | 0.609 | 0.359 | 0.153 | 0.152 | 0.3 | 0.274 | 0.232 | 0.188 | 0.159 | 0.464 | 0.651 | 0.319 | 0.168 | 0.146
8 | NCI-H1993 | 0.512 | 0.67 | 0.561 | 0.513 | 0.431 | 0.662 | 0.674 | 0.605 | 0.519 | 0.517 | 0.513 | 0.616 | 0.41 | 0.421 | 0.448 | 0.952 | 1.14 | 0.742 | 0.535 | 0.462
